The values below are quoted from earlier work in patent US7610153B2, “Multi-drug titration and evaluation” (Virginia Commonwealth University, priority 2002, dated 2009).

For this series the following is noted: literature.

Consider `CN(C)C(=N)N=C(N)N` [metformin], for which the hypoglycemia result is given as “does not cause hypoglycemia”. The “decrease in fasting and postprandial glycemia” value (type 2 diabetes) is 60 to 70 mg/dL.
